39 compounds from ChEMBL document CHEMBL4627289, “Design, synthesis and evaluation of unnatural peptides as T1R2/T1R3 PAMs” (Bioorg Med Chem Lett, 2020) can be followed below.

The assay addresses T1R2/T1R3 (Homo sapiens) (UniProt Q8TE23+Q7RTX0). Briefly: Positive allosteric modulation of human TIR2/TIR3 expressed in PEAKrapid cells assessed as potentiation of sucrose-induced intracellular calcium influx by measuring sucrose EC50 at 30 uM measured for 120 secs by fluorescence based assay relative to FEMA4774. The class given is functional, cell-based. For orientation: A change in cytosolic calcium serves as a functional read-out for many receptors and channels.
As to `CC(C)(CC(=O)Nc1cncc(C(=O)O)c1N)NC(=O)C1CCNC1` (centres undefined), the Efficacy stood at 55%.

For the compound `CC(C)(CC(=O)Nc1cncc(C(=O)O)c1N)NC(=O)[C@@H](N)CC1CCCCC1`, the Efficacy is 57%.

Consider `CC(C)(CC(=O)Nc1cncc(C(=O)O)c1N)NC(=O)C1CCCCC1`, for which the Efficacy is 71%.

For the compound `CC(C)(CC(=O)Nc1cncc(C(=O)O)c1N)NC(=O)[C@H]1CC[C@H](N)CC1`, the Efficacy stood at 55%.

On to `CC(C)(CC(=O)Nc1cncc(C(=O)O)c1N)NC(=O)[C@@H]1CCC[C@H](N)C1`, for which the Efficacy was determined as 57%.

On to `CC(C)(CC(=O)Nc1cncc(C(=O)O)c1N)NC(=O)C1(N)CCCCC1`, for which the Efficacy amounted to 59%.

For the compound `CC(C)[C@H](N)C(=O)NC(C)(C)CC(=O)Nc1cncc(C(=O)O)c1N`, the Efficacy worked out at 61%.

In the case of `CCCCCCCC/C=C\CCCCCCCC(=O)NC(C)(C)CC(=O)Nc1cncc(C(=O)O)c1N`, the Efficacy is 55%.

For `CCCCCC(=O)NC(C)(C)CC(=O)Nc1cncc(C(=O)O)c1N`, the Efficacy stood at 65%.

With `CCCCCCCCCCCC(=O)NC(C)(C)CC(=O)Nc1cncc(C(=O)O)c1N`, the Efficacy came out at 50%.

`CC(C)(CC(=O)Nc1cncc(C(=O)O)c1N)NC(=O)CC1(CN)CCCCC1`: the Efficacy turned out to be 80%.

For `CC(C)C(=O)NC(C)(C)CC(=O)Nc1cncc(C(=O)O)c1N`, the Efficacy came to 54%.

In the case of `CCCCCCC(=O)NC(C)(C)CC(=O)Nc1cncc(C(=O)O)c1N`, the Efficacy was 59%.

As to `CC(C)(CC(=O)Nc1cncc(C(=O)O)c1N)NC(=O)[C@@H](NC(=O)[C@@H](N)C1CCCCC1)C1CCCCC1`, the Efficacy was 92%.

For `CC(C)(CC(=O)Nc1cncc(C(=O)O)c1N)NC(=O)[C@@H](N)C1CCCCC1`, the Efficacy was found to be 96%.

As to `CC(C)(C)CC(=O)NC(C)(C)CC(=O)Nc1cncc(C(=O)O)c1N`, the Efficacy is 64%.

For the compound `CC(C)(CC(=O)Nc1cncc(C(=O)O)c1N)NC(=O)C1(c2ccccc2)CC1`, the Efficacy came to 54%.

Regarding `CC(C)(CC(=O)Nc1cncc(C(=O)O)c1N)NC(=O)CC1CCCC1`, the Efficacy worked out at 79%.

In the case of `CCCCCCCC(=O)NC(C)(C)CC(=O)Nc1cncc(C(=O)O)c1N`, the Efficacy turned out to be 57%.

Take `CC(C)(CC(=O)Nc1cncc(C(=O)O)c1N)NC(=O)[C@H]1CC[C@@H](N)CC1`: the Efficacy was 58%.

As for `CC[C@H](C)[C@H](NC(=O)[C@@H](NC(=O)OC(C)(C)C)C1CCCCC1)C(=O)NC(C)(C)CC(=O)Nc1cncc(C(=O)O)c1N`, the Efficacy came out at 84%.

As to `CC(C)(CC(=O)Nc1cncc(C(=O)O)c1N)NC(=O)c1ccc(N)cc1`, the Efficacy came to 56%.

`CC(C)(CC(=O)Nc1cncc(C(=O)O)c1N)NC(=O)CCC1CCCCC1`: the Efficacy was found to be 65%.

Regarding `CC(C)(CC(=O)Nc1cncc(C(=O)O)c1N)NC(=O)[C@@H](N)c1ccccc1`, the Efficacy was 61%.

`CC(C)(CC(=O)Nc1cncc(C(=O)O)c1N)NC(=O)C1CCNCC1`: the Efficacy was 56%.

As for `CC[C@H](C)[C@H](NC(=O)[C@@H](N)C1CCCCC1)C(=O)NC(C)(C)CC(=O)Nc1cncc(C(=O)O)c1N`, the Efficacy was 76%.

For the compound `CC(C)(CC(=O)Nc1cncc(C(=O)O)c1N)NC(=O)CC[C@@H](N)Cc1ccccc1`, the Efficacy amounted to 54%.

For `CC(C)(CC(=O)Nc1cncc(C(=O)O)c1N)NC(=O)C[C@@H]1CCNC1`, the Efficacy stood at 56%.

Regarding `CC(C)(CC(=O)Nc1cncc(C(=O)O)c1N)NC(=O)C(C)(C)C`, the Efficacy is 58%.

On to `CC(C)C[C@H](N)C(=O)NC(C)(C)CC(=O)Nc1cncc(C(=O)O)c1N`, for which the Efficacy was found to be 73%.

For the compound `CC(C)C[C@H](NC(=O)[C@@H](NC(=O)OC(C)(C)C)C1CCCCC1)C(=O)NC(C)(C)CC(=O)Nc1cncc(C(=O)O)c1N`, the Efficacy was determined as 85%.

As to `CC(C)(CC(=O)Nc1cncc(C(=O)O)c1N)NC(=O)[C@H](N)C1CCCCC1`, the Efficacy worked out at 59%.

For `CC(C)(CC(=O)Nc1cncc(C(=O)O)c1N)NC(=O)c1cccc(N)c1`, the Efficacy was 56%.

`CC(C)CC(=O)NC(C)(C)CC(=O)Nc1cncc(C(=O)O)c1N`: the Efficacy worked out at 60%.

On to `CC(C)(CC(=O)Nc1cncc(C(=O)O)c1N)NC(=O)C[C@H]1CCNC1`, for which the Efficacy turned out to be 52%.

Regarding `CC(C)(CC(=O)Nc1cncc(C(=O)O)c1N)NC(=O)c1cccc2c1CCCC2`, the Efficacy worked out at 73%.

For `CC(C)(CC(=O)Nc1cncc(C(=O)O)c1N)NC(=O)CC1CCCCC1`, the Efficacy is 85%.

In the case of `CC(C)C[C@H](NC(=O)[C@@H](N)C1CCCCC1)C(=O)NC(C)(C)CC(=O)Nc1cncc(C(=O)O)c1N`, the Efficacy is 77%.

`CC(C)(CC(=O)Nc1cncc(C(=O)O)c1N)NC(=O)c1ccccc1`: the Efficacy is 50%.
